Patent publication US8211646B1, “Methods of treating ovarian cancer by modulating SnoN” (University of South Florida, priority 2008, dated 2012)

Key:
Assay type in all cases: cell-based
ovarian cancer cells = experiment: Cell titer glo cell viability assay
Experimental: Measurement of Intracellular ATP Levels. T80, HEY, and SKOV3 ovarian cells were seeded in triplicate for each treatment group at 5000 cells per well into each well of a 96 well white-opaque plate. Following overnight cell attachment, cells were treated for 18 hours with appropriate doses of arsenic trioxide or geldanamycin (0 mM, 2 μM, 5 μM, 10 μM, 25 μM, and 50 μM). Following termination of the cell treatments, the media was removed from the wells and replaced with 100 μl of phosphate-buffered saline (PBS). The plate was equilibrated to room temperature, 100 μl of Cell-Titer Glo reagent (Promega, Madison, Wis.) was added, and mixed on a plate shaker for 2 minutes. The plate was further incubated for 10 minutes at room temperature prior to reading with a Biotek luminescence plate reader to obtain relative light unit (RLU) measurements. Empty wells (containing no cells) were utilized as a correction for background luminescence. All experiments were performed in triplicate.

glutathione (GSH) = experiment: GSH-Glo glutathione assay; settings: T80, HEY, SKOV3; 18 hours
Experimental: Glutathione (GSH) was measured using the GSH Glo kit (Promega). Briefly, T80, HEY, and SKOV3 ovarian cells were plated at 5000 cells/well in opaque white 96 well plates. Following overnight attachment, cells were treated with As2O3 for 18 hours. Following cell treatments, the media was discarded and fresh PBS was added for washout followed by the addition of 100 μl of GSH-Glo reagent. Following a 2 minute shake, the cells were incubated at room temperature for 30 minutes followed by the addition of reconstituted luciferase detection reagent. The cells were incubated for a further 15 minutes at room temperature and the plate was read on a Biotek luminescence plate reader. All measurements were performed in triplicate.

[1] = tested on: immortalized and cancer ovarian cell lines; experiment: Boyden chamber migration assay; settings: 5 μM As2O3 6 hours, then 18 hours in Boyden chamber
Experimental: FIGS. 25(A) through (C) are graphs showing arsenic trioxide induces cell death and inhibits migratory potential. HEY cells were treated for 6 hours with 5 μM As2O3 and seeded at 25,000 cells into Boyden chamber inserts for 18 hours. Cells were stained with crystal violet and counted.
TAg/hTert immortalized normal ovarian epithelial cells (TIOSE: T29 and T80) and ovarian cancer cells (OVCAR8, OVCA429, SKOV3, and HEY) were transfected with siRNA were counted 24 h post-transfection and 5000 cells were plated in each well of a 96-well plate maintained in 10% FBS. At various days, cells were fixed and stained with crystal violet solution, dissolved in Sorenson's buffer, and absorbance measured at 570 nm. To assess migration, cells transfected with siRNA were counted 24 h post-transfection and seeded into Boyden chamber inserts in serum-free media. FBS in the lower chamber media (RPMI 1640) was used as a chemoattractant for 24 h. The cells that migrated onto the lower membrane were stained with crystal violet, photographed, and counted.

SnoN RNA = experiment: qPCR of SnoN RNA levels in ovarian cell lines; settings: 5 μM As2O3, 18 hours
Experimental: RNA was isolated using the RNeasy Mini Kit (Qiagen, Valencia, Calif.) from normal, benign, stage I-IV ovarian patient samples and quantitative PCR was performed. A one-step RT-PCR Taqman master mix from Applied Biosystems (Foster City, Calif.) and primers for genes in the 3q26.2 amplicon were obtained using Genebank sequences as well as from Assays on Demand (Hs00180524_m1 (SnoN/SkiL)), with the following primers and probe sets.
Primers/probe sequences for SnoN (Hs00180524_m1), TGFβRII (Hs00234253_m1), and LC3 (Hs00261291_m1) were obtained from Applied Biosystems (Assays by Design).
mRNA levels were determined using the One-Step-Plus Applied Biosystems Detection System or ABI PRISM 7700 Sequence Detection System using β-actin as a reference. PCR conditions were as follows: stage I: 48° C. for 30 min; stage II: 95° C. for 10 min; stage III: [40 cycles] 95° C. for 15 s followed by 60° C. for 1 min Using the correlative method, RNA-fold change in expression was calculated as Ct of gene—Ct of β-actin to generate ΔCt from which ΔCt of the normal sample was subtracted. These values were then converted to log2 values.
The clinical inhibitors As2O3, geldanamycin (17-AAG) (dissolved in dimethylsulfoxide [DMSO]), and MG132 (dissolved in DMSO) were obtained from Sigma-Aldrich (St. Louis, Mo.), Fisher Scientific (Pittsburgh, Pa.), and Alexis Biochemicals (Farmingdale, N.Y.), respectively. N-acetyl-L-cysteine (NAC; dissolved in media) and Bortezomib (PS-341; dissolved in DMSO) were obtained from Fisher Scientific. 3-Methyladenine (3-MA; dissolved in media) was obtained from MP Biomedicals (Solon, Ohio). Tiron (4,5-Dihydroxy-1,3-benzenedisulfonic acid, dissolved in media) was obtained from Fisher Scientific. zVAD-fmk (dissolved in DMSO) and bafilomycin A (dissolved in DMSO) was obtained from Axxora LLC (San Diego, Calif.). […] After the appropriate incubation time (6 or 18 hours), cell lysates were collected, protein quantified, and SDS-PAGE/western analysis was performed. In addition, for selected studies, RNA was isolated, quantified, and used for qPCR analysis.

With Arsenic trioxide [As2O3] the “reduction of cell growth (cellular viability)” value (ovarian cancer cells; 25 μM, 18 hour treatment, relative to control cells) was 50%, the “sensitivity of cellular viability to As2O3” value (ovarian cancer cells; SKOV3 (high EVI1) compared to T80 (low EVI1), 2-50 μM, 18 hours) was “more resistant” and the GSH levels (glutathione (GSH)) was “markedly reduced”. The “reduction of migratory potential” value [1] was “more than fifty percent” and the “effect on SnoN RNA” value (SnoN RNA) was “little effect”.
